Results from ChEMBL document CHEMBL4396882, “2-Aminothiazole-4-carboxamides Enhance Readthrough of Premature Termination Codons by Aminoglycosides” (2019).
Activity calls are given as the source filed them. No cut-off for these calls is given here.

Key:
HDQ-P1 [1] = assay: Induction of P53 expression in human HDQ-P1 cells assessed as enrichment ratio at 10 uM incubated for 72 hrs in presence of 50 uM G418 by Hoechst 33323 staining based fluorescence assay; format: functional
HDQ-P1 [2] = assay: Induction of P53 expression in human HDQ-P1 cells assessed as enrichment ratio at 3 uM incubated for 72 hrs in presence of 50 uM G418 by Hoechst 33323 staining based fluorescence assay; format: functional
HDQ-P1 [3] = assay: Induction of P53 expression in human HDQ-P1 cells assessed as enrichment ratio at 10 uM incubated for 72 hrs by automated electrophoresis western analysis; format: functional
HDQ-P1 [4] = assay: Induction of P53 expression in human HDQ-P1 cells assessed as enrichment ratio at 30 uM incubated for 72 hrs by automated electrophoresis western analysis; format: functional
HDQ-P1 [5] = assay: Induction of P53 expression in human HDQ-P1 cells assessed as enrichment ratio at 10 uM incubated for 72 hrs in presence of 25 uM G418 by automated electrophoresis western analysis; format: functional
HDQ-P1 [6] = assay: Induction of P53 expression in human HDQ-P1 cells assessed as enrichment ratio at 30 uM incubated for 72 hrs in presence of 25 uM G418 by automated electrophoresis western analysis; format: functional
HDQ-P1 [7] = assay: Induction of P53 expression in human HDQ-P1 cells assessed as enrichment ratio at 10 uM incubated for 72 hrs in presence of 50 uM G418 by automated electrophoresis western analysis; format: functional
HDQ-P1 [8] = assay: Induction of P53 expression in human HDQ-P1 cells assessed as enrichment ratio at 3 uM incubated for 72 hrs in presence of 50 uM G418 by automated electrophoresis western analysis; format: functional
HDQ-P1 [9] = assay: Effect on human HDQ-P1 cells assessed as increase in TP53 R213X mRNA level at 10 uM incubated for 72 hrs in presence of G418 by RT-qPCR analysis; format: functional, cell-based
HDQ-P1 [10] = assay: Effect on human HDQ-P1 cells assessed as increase in TP53 R213X mRNA level at 10 uM incubated for 72 hrs by RT-qPCR analysis; format: functional, cell-based
HDQ-P1 [11] = assay: Cytotoxicity in human HDQ-P1 cells assessed as reduction in cell viability at 1 uM incubated for 72 hrs by MTT assay; format: functional, cell-based
HDQ-P1 [12] = assay: Cytotoxicity in human HDQ-P1 cells assessed as reduction in cell viability at 3 uM incubated for 72 hrs by MTT assay relative to control; format: functional
HDQ-P1 [13] = assay: Cytotoxicity in human HDQ-P1 cells assessed as reduction in cell viability incubated for 72 hrs in presence of G418 by MTT assay; format: functional, cell-based
HDQ-P1 [14] = assay: Ratio of enrichment ratio of test compound at 10 uM to enrichment ratio of CDX5-1 at 30 uM in human HDQ-P1 cells by automated electrophoresis western analysis; format: functional
HDQ-P1 [15] = assay: Induction of P53 expression in human HDQ-P1 cells assessed as enrichment ratio at 3 uM incubated for 72 hrs in presence of gentamicin by automated electrophoresis western analysis; format: functional

O=C(Nc1ccc2[nH]ncc2c1)c1csc(Nc2ccc3[nH]ccc3c2)n1
Ratio (HDQ-P1 [1]): 8
Ratio (HDQ-P1 [2]): 1.4

O=C1NC(=O)c2cc(NCc3c(Cl)cccc3Cl)ccc21
Ratio (HDQ-P1 [3]): 0.1
Ratio (HDQ-P1 [4]): 0.1
Ratio (HDQ-P1 [5]): 2.8
Ratio (HDQ-P1 [6]): 8.3

COc1ccc(NC(=O)c2cnc(Nc3ccc4[nH]ncc4c3)s2)cn1
Ratio (HDQ-P1 [1]): 7.8
Ratio (HDQ-P1 [2]): 2.2

O=C(Nc1ccc2c(c1)OCCO2)c1csc(Nc2ccc(=O)[nH]c2)n1
Ratio (HDQ-P1 [1]): 7
Ratio (HDQ-P1 [2]): 3.8
Ratio (HDQ-P1 [7]): 2.3
Ratio (HDQ-P1 [8]): 2.4

O=C(Nc1ccc(F)cc1)c1csc(Nc2cccc3[nH]ncc23)n1
Activity (HDQ-P1 [9]): inactive
Ratio (HDQ-P1 [1]): 23.3
Ratio (HDQ-P1 [2]): 13.1
Ratio (HDQ-P1 [7]): 23.3
Ratio (HDQ-P1 [8]): 13.1
Ratio (HDQ-P1 [3]): 0.3
Ratio (HDQ-P1 [5]): 25.7
Activity (HDQ-P1 [10]): inactive
Activity (HDQ-P1 [11]): inactive
Activity (HDQ-P1 [12]): 42%
Activity (HDQ-P1 [13]): Active
Ratio (HDQ-P1 [14]): 3

O=C(Nc1ccc2[nH]ccc2c1)c1csc(Nc2ccc3[nH]ncc3c2)n1
Ratio (HDQ-P1 [1]): 23
Ratio (HDQ-P1 [2]): 1.3

O=C(Nc1ccc2c(c1)OCCO2)c1csc(Nc2cccc3[nH]ncc23)n1
Ratio (HDQ-P1 [1]): 15.8
Ratio (HDQ-P1 [2]): 3.4
Ratio (HDQ-P1 [7]): 15.8
Ratio (HDQ-P1 [8]): 3.4

COc1ccc(NC(=O)c2csc(Nc3cccc4[nH]ncc34)n2)cc1
Ratio (HDQ-P1 [1]): 5.9
Ratio (HDQ-P1 [2]): 1.6

O=C(Nc1ccc2c(c1)OCO2)c1cnc(Nc2ccc3[nH]ncc3c2)s1
Ratio (HDQ-P1 [1]): 19.2
Ratio (HDQ-P1 [2]): 1.2

O=C(Nc1ccc2c(c1)OCCO2)c1csc(Nc2ccc3ncccc3c2)n1
Ratio (HDQ-P1 [1]): 8.7
Ratio (HDQ-P1 [2]): 1.6

CSc1ccc(NC(=O)c2csc(Nc3cccc4[nH]ncc34)n2)cc1
Activity (HDQ-P1 [9]): inactive
Ratio (HDQ-P1 [1]): 20.1
Ratio (HDQ-P1 [2]): 8.2
Ratio (HDQ-P1 [7]): 7.2
Ratio (HDQ-P1 [8]): 5.3
Ratio (HDQ-P1 [3]): 0.1
Ratio (HDQ-P1 [5]): 8.8
Ratio (HDQ-P1 [15]): 10.8
Activity (HDQ-P1 [10]): inactive
Activity (HDQ-P1 [11]): inactive
Activity (HDQ-P1 [12]): 60%
Activity (HDQ-P1 [13]): Active
Ratio (HDQ-P1 [14]): 3

COc1cc(NC(=O)c2csc(Nc3cccc4[nH]ncc34)n2)cc(OC)c1OC
Ratio (HDQ-P1 [1]): 7.2
Ratio (HDQ-P1 [2]): 5.3
Ratio (HDQ-P1 [7]): 20.1
Ratio (HDQ-P1 [8]): 8.2

COc1ccc(NC(=O)c2csc(Nc3cccc4[nH]ncc34)n2)cn1
Ratio (HDQ-P1 [1]): 27.2
Ratio (HDQ-P1 [2]): 1.4

CSc1ccc(NC(=O)c2cnc(Nc3ccc4[nH]ncc4c3)s2)cc1
Ratio (HDQ-P1 [1]): 4.7
Ratio (HDQ-P1 [2]): 1.6

O=C(Nc1ccc2c(c1)OCO2)c1csc(Nc2ccc3[nH]ncc3c2)n1
Ratio (HDQ-P1 [1]): 5.4
Ratio (HDQ-P1 [2]): 1.2

O=C(Nc1ccc2c(c1)OCO2)c1csc(Nc2ccc3ncccc3c2)n1
Ratio (HDQ-P1 [1]): 10.7
Ratio (HDQ-P1 [2]): 3.5
Ratio (HDQ-P1 [7]): 10.7
Ratio (HDQ-P1 [8]): 3.6

O=C(Nc1ccccc1)c1csc(Nc2ccc3[nH]ncc3c2)n1
Ratio (HDQ-P1 [1]): 11.2
Ratio (HDQ-P1 [2]): 2.5
